# Read-outs that look alike come from different tables or passages of the source.
# Key:
# [1] = system: human erythrocytes; test: Human blood hemolysis; format: cell-based; settings: increasing concentrations; result in words
# Procedure: Human blood hemolysis. Hemolytic activity of retinoids on human erythrocytes was evaluated using a previously described method with modifications (Rajamuthiah, R. et al. A defensin from the model beetle Tribolium castaneum acts synergistically with telavancin and daptomycin against multidrug resistant Staphylococcus aureus. PLoS ONE 10, e0128576 (2015)). 10% human erythrocytes were purchased from Rockland Immunochemicals (Limerick, Pa., USA). The erythrocytes were diluted to 4% with PBS, and 100 μl was added to 100 μl of two-fold serial dilutions of compounds in PBS, 0.2% DMSO (negative control), or 2% Triton-X 100 (positive control) in a 96-well plate. The 96-well plate was incubated at 37° C. for 1 h and then centrifuged at 500×g for 5 min. 100 μl of the supernatant was transferred to a fresh 96-well plate, and absorbance of supernatants was measured at 540 nm. Percent hemolysis was calculated using the following equation: (A540 nm of compound treated sample—A540nm of 0.1% DMSO treated sample)/(A540 nm of 1% Triton X-100 treated sample—A540nm of 0.1% DMSO treated sample)×100. HC50 (concentration of a compound causing 50% hemolysis) was determined using SigmaPlot 10.0 (Systat Software Inc., San Jose, Calif., USA).
# In a 96 well plate, 50 μl of 2% human erythrocytes suspended in PBS was added to 50 μl of compounds serially diluted in PBS and incubated at 37° C. for 1 hour. The plate was then centrifuged at 500 G for 5 minutes and 50 μl of the supernatant from each well of the assay plate was transferred to a fresh 96 well plate. Hemolysis was confirmed by both visual observation and measuring absorbance at 540 nm. Treatment was conducted in triplicate.
# 2% human erythrocytes were treated with two-fold serially diluted concentration of the retinoids for 1 h at 37° C. A sample treated with 1% Triton-X 100 was used as the control for 100% hemolysis. Results are shown as means±s.d.; n=3.
# [2] = system: HepG2 cells; test: Toxicity assay with HepG2 liver cells (WST-1); format: cell-based; settings: 24 hours; result in words
# Procedure: HepG2 cells were cultured in Dulbecco's modified Eagle medium (DMEM) containing 10% fetal bovine serum, 25 mM D-glucose, 2 mM L-glutamine, 1 mM sodium pyruvate and 1% penicillin/streptomycin and maintained at 37° C. in 5% CO2. For the toxicity test, HepG2 were cultured at 70-80% confluence in 96-well plates in a volume of 100 μl/well culture medium. Serially diluted chemical compounds were incubated with the cells at 37° C. in 5% CO2 for 24 hours. Ten microliters of 4-(3-(4-iodophenyl)-2-(4-nitrophenyl)-2H-5-tetrazolio)-1,3-benzene disulfonate (WST-1) solution were added per well for the last 4 hours of the 24 hours period. WST-1 reduction was detected using absorbance at 490 nm by a Vmax microplate reader. The percent […] relative to that of the no-treatment control was calculated. The assay was done in triplicate.
# [3] = system: P aeruginosa; test: Disc clearing assay; format: cell-based, Pseudomonas aeruginosa; settings: result in words
# Procedure: (§1) Disc clearing assay: The disc diffusion test was performed on Mueller Hinton (MH) agar plates for bacterial cultures and yeast extract, peptone, dextrose (YPD) for fungal cultures. The assay was repeated 3 times. Discs were soaked in 10 μl of either DMSO or 10 mg/ml compound stock solution and air-dried. Three hundred microliters of an overnight culture of bacteria or fungi were spread on plates. After completely drying the agar plate in a laminar flow hood, DMSO or compound impregnated discs were overlaid on the plate and incubated at 35° C. for 18 hrs.
# [4] = system: K. pneumoniae; test: Disc clearing assay; format: cell-based, Klebsiella pneumoniae; settings: result in words
# Procedure: as §1
# [5] = system: S. aureus; test: Minimal inhibitory concentration (MIC), broth microdilution; format: cell-based, Staphylococcus aureus
# Outline: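 MIC values against methicillin-resistant Staphylococcus aureus were determined by standard broth microdilution following Clinical and Laboratory Standards Institute guidance (CLSI document M07-A8). Each well held 100 μl of test compound plus bacterial cells in MH broth, with the starting OD600 set to 0.03. Plates were incubated 18 hrs at 35° C. and absorbance was then read at 595 nm.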
# [6] = system: E. spp.; test: Disc clearing assay; format: cell-based, Enterobacter sp.; settings: result in words
# Procedure: as §1
# [7] = system: E. faecium; test: Disc clearing assay; format: cell-based, Enterococcus faecium; settings: result in words
# Procedure: as §1
# [8] = system: A. baumannii; test: Disc clearing assay; format: cell-based, Acinetobacter baumannii; settings: result in words
# Procedure: as §1
# [9] = system: S. aureus MW2 (MRSA) in neutropenic mouse thigh; settings: previous study (Conlon 2013); cited from earlier work
# [10] = system: P. aeruginosa; test: MIC, broth microdilution; format: cell-based, Pseudomonas aeruginosa; settings: P. aeruginosa PA14
# Source text: (§2) Bacterial strains and growth conditions and persister isolation: methicillin-resistant S. aureus (MRSA) strain MW2 BAA-1707, vancomycin-resistant S. aureus strain VRS 1, 11 clinical S. aureus isolates, 8 clinical Enterococcus faecium isolates, Klebsiella pneumoniae WGLW2 (BEI Resources, Manassas, Va., USA), Acinetobacter baumannii ATCC 17978, Pseudomonas aeruginosa PA14, and Enterobacter aerogenes ATCC 13048 were used to test antimicrobial activity (See Table 1a). S. aureus and E. faecium strains were grown in tryptic soy broth (TSB) (BD, Franklin Lakes, N.J., USA) or brain-heart infusion (BHI) broth (BD, Franklin Lakes, N.J., USA), respectively at 37° C. at 225 rpm. K. pneumoniae, A. baumannii, P. aeruginosa, and E. aerogenes were grown in Luria Bertani (LB) broth (BD, Franklin Lakes, N.J., USA).
# (§3) To test the bacterial MICs for compounds described herein, the total volume in each well was 100 μl of test compounds and bacterial cells in MH broth. […] The bacterial concentration was adjusted to an initial OD600 of 0.03. After incubation at 35° C. for 18 hrs, the absorbance was measured at 595 nm in accordance with CLSI document M07-A8. The MICs of antibiotics were determined by the standard microdilution method recommended by the Clinical and Laboratory Standards Institute.
# [11] = system: A. baumannii; test: MIC, broth microdilution; format: cell-based, Acinetobacter baumannii; settings: A. baumannii ATCC 17978
# Source text: as §2, §3
# [12] = system: S. aureus persister cells (stationary phase); test: Persister killing assay; format: cell-based, Staphylococcus aureus; settings: 4 μg/ml CD437 or CD1530 or 10 μg/ml gentamicin alone
# Procedure: Persister killing assay. […] Persister cells of these 13 S. aureus strains were developed by growing cultures overnight to stationary phase at 37° C. at 225 rpm. The overnight cultures were washed three times with PBS and diluted to ˜10^7 CFU/ml with the same buffer, which is the same concentration as used in the killing kinetics assay described herein. 1 ml of the persister suspension containing appropriate concentrations of antibiotics was added to the wells of a 2 ml deep well assay block (Corning Costar 3960) and incubated at 37° C., with shaking at 225 rpm. At specific times, 50 μl samples were removed, serially diluted and spot-plated on TSA plates to enumerate the number of live cells. These experiments were conducted in triplicate.
# [13] = system: E. aerogenes ATCC 13048; test: MIC, broth microdilution; format: cell-based, Enterobacter aerogenes; settings: E. aerogenes ATCC 13048
# Source text: as §2, §3
# [14] = system: K. pneumonia WGLW2; test: MIC, broth microdilution; format: cell-based, Klebsiella pneumoniae; settings: K. pneumonia WGLW2
# Source text: as §2, §3
# [15] = system: E. faecium; test: MIC, broth microdilution; format: cell-based, Enterococcus faecium
# Outline: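 MIC by CLSI broth microdilution (M07-A8) in MH broth; E. aerogenes, K. pneumoniae and A. baumannii pre-grown in LB, E. faecium in BHI, at 37° C. Inoculum at initial OD600 0.03, incubated 18 hrs at 35° C., growth read as absorbance at 595 nm.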
compound,measurement,setting,value
"CC1COc2c(N3CCN(C)CC3)c(F)cc3c(=O)c(C(=O)OCc4ccccn4)cn1c23 (stereo not drawn) [Z3060, pyridin-2-ylmethyl 9-fluoro-3-methyl-10-(4-methylpiperazin-1-yl)-7-oxo-3,7-dihydro-2H-[1,4]oxazino[2,3,4-ij]quinoline-6-carboxylate]",toxicity (hemolysis) to erythrocytes,[1],did not exhibit lysis
same,HepG2 cell viability,[2],cell viability are maintained
same,"zone of inhibition, P aeruginosa",[3],zone of inhibition
same,"zone of inhibition, K. pneumoniae",[4],zone of inhibition
same,MIC,"[5]; Staphylococcus aureus, S. aureus (reference strain), read-out: MIC",2 µg/mL
same,MIC,"[5]; Staphylococcus aureus, clinical isolates of S. aureus (Z3060), read-out: MIC",1 to 2 µg/mL
same,MIC change,"[5]; clinical isolates known to be drug resistant, result in words",increased
same,"zone of inhibition, E. spp.",[6],zone of inhibition
same,"zone of inhibition, E. faecium",[7],zone of inhibition
same,"zone of inhibition, A. baumannii",[8],zone of inhibition
gentamicin,reduction of MRSA CFUs in the deep-seated mouse thigh infection model,[9],unable to significantly reduce
same,Minimum inhibitory concentration,[10],2 µg/mL
same,Minimum inhibitory concentration,[11],1 µg/mL
same,"viability of MW2 persister cells, single agent",[12],did not significantly affect
same,Minimum inhibitory concentration,[13],2 µg/mL
same,Minimum inhibitory concentration,[5]; S. aureus BF1,1 µg/mL
same,Minimum inhibitory concentration,[5]; S. aureus BF2,1 µg/mL
same,Minimum inhibitory concentration,[5]; S. aureus BF3,1 µg/mL
same,Minimum inhibitory concentration,[5]; S. aureus BF4,1 µg/mL
same,Minimum inhibitory concentration,[5]; S. aureus BF5,1 µg/mL
same,Minimum inhibitory concentration,[5]; S. aureus BF6,1 µg/mL
same,Minimum inhibitory concentration,[5]; S. aureus BF7,1 µg/mL
same,Minimum inhibitory concentration,[5]; S. aureus BF8,1 µg/mL
same,Minimum inhibitory concentration,[5]; S. aureus BF9,1 µg/mL
same,Minimum inhibitory concentration,[5]; S. aureus BF10,1 µg/mL
same,Minimum inhibitory concentration,[5]; S. aureus BF11,1 µg/mL
same,Minimum inhibitory concentration,[5]; S. aureus MW2,1 µg/mL
same,MIC,[5]; S. aureus MW2 mutant SP1-8 (graS),0.25 µg/mL
same,MIC,"[5]; S. aureus MW2 mutant SP1-48 (graS, manA)",0.25 µg/mL
same,MIC,"[5]; S. aureus MW2 mutant SP1-74 (graS, manA, MW2474)",0.25 µg/mL
same,MIC,"[5]; S. aureus MW2 mutant SP1-100 (graS, manA, MW2474)",0.25 µg/mL
same,MIC,[5]; S. aureus MW2 mutant SP2-13 (yjbH),1 µg/mL
same,MIC,"[5]; S. aureus MW2 mutant SP2-52 (yjbH, dltB)",0.25 µg/mL
same,MIC,"[5]; S. aureus MW2 mutant SP2-59 (yjbH, dltB, manA)",0.25 µg/mL
same,MIC,"[5]; S. aureus MW2 mutant SP2-65 (yjbH, dltB, manA, MW1685)",0.25 µg/mL
same,MIC,"[5]; S. aureus MW2 mutant SP2-100 (yjbH dltB, manA, MW1685)",0.25 µg/mL
same,MIC,[5]; S. aureus MW2 serial passage culture SP1-1 (no mutated gene),1 µg/mL
same,MIC,[5]; S. aureus MW2 serial passage culture SP2-1 (no mutated gene),1 µg/mL
same,Minimum inhibitory concentration,[5]; S. aureus VRS1,>64 µg/mL
same,Minimum inhibitory concentration,[14],1 µg/mL
same,Minimum inhibitory concentration,[15]; E. faecium C68,>64 µg/mL
same,Minimum inhibitory concentration,[15]; E. faecium D14,32 µg/mL
same,Minimum inhibitory concentration,[15]; E. faecium D24,>64 µg/mL
same,Minimum inhibitory concentration,[15]; E. faecium D25,32 µg/mL
same,Minimum inhibitory concentration,[15]; E. faecium D29,64 µg/mL
same,Minimum inhibitory concentration,[15]; E. faecium E007,>64 µg/mL
same,Minimum inhibitory concentration,[15]; E. faecium WB213,32 µg/mL
same,Minimum inhibitory concentration,[15]; E. faecium WC176,64 µg/mL

# From patent US11707442B2, “Antibacterial and antifungal compounds” (The General Hospital Corporation, priority 2015, dated 2023)
